Measured values reported in publication PMC6895180 (Nature Communications, 2019).
Values joined by “and” are separate entries in the source; they are usually repeats but may differ in a detail not shown here. Identical values can stand only once. Like-named read-outs stand apart in the source and are kept apart here.

How the values were obtained:
[1] = test system: T. brucei BSF s427 wildtype cells; assay: Growth assays of T. brucei (trypanocidal/trypanostatic effect); format: cell-based, Trypanosoma brucei; conditions: experiment 1
Method: Growth assays of T. brucei
To test the effect of the novel adenosine analogues on the growth of T. brucei BSF, s427 wildtype cells were seeded at 1×10^5 cells mL-1 in 5 mL of HMI-9 medium with 10% FBS and treated with compounds […]
cells were also incubated in drug-free medium under the same conditions. 2 μM of 2’-deoxycoformycin were added to all cultures to avoid any potential effect of serum adenosine deaminase on the activity of test compounds and cordycepin.1
Cells were manually counted in Neubauer chambers at 0, 2, 4, 6, 8, 12, 24, 36 and 48 h after addition of […]
the drugs. […]
After 6 and 12 h after addition of drugs, approximately 2×10^6 cells were harvested from each group and applied to glass slides pre-treated with poly-L-lysine, left to settle for 5 min and fixed with 4% formaldehyde for 4 min. The formaldehyde was neutralised by addition of 100 mM glycine (20 min).
Cells were washed once with PBS and blocked for 1 h with 1% BSA/0.2% Tween-20 in PBS. Cells were […]

P2 transporter (TbAT1) [2] = target: T1, P2 transporter (TbAT1) (Trypanosoma brucei brucei, UniProt Q9Y0I0); set-up: method as in PMID 24283924; conditions: ref [18]; cited from earlier work
T1 sequence (Q9Y0I0 entry or part of it): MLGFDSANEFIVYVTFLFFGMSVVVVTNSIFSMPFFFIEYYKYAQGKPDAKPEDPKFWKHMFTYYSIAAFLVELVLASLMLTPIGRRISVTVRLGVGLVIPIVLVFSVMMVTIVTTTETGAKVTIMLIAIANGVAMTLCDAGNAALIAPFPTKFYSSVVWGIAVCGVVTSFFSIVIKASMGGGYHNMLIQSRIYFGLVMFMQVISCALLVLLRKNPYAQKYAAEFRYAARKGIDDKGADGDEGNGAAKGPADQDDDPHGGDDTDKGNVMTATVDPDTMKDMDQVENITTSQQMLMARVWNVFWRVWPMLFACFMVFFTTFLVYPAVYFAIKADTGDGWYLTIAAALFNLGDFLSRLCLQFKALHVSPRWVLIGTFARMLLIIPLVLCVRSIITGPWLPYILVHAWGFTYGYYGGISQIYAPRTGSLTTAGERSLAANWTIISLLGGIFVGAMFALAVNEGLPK

P1 transporter = target: P1 transporter; set-up: method as in PMID 10570043; conditions: ref [29]; cited from earlier work
[3] = test system: Lister 427WT T. b. brucei; assay: Adenosine deaminase susceptibility (drug sensitivity with/without 2 µM deoxycoformycin); format: cell-based, Trypanosoma brucei brucei; conditions: Trypanosoma brucei, Lister 427WT, mean ± SEM, n=3
Method: Drug susceptibility tests with Lister 427WT, TbAT1-KO[48], B48[26] and ISMR1[27] were performed using an assay based on the viability indicator dye resazurin in 96-well plates, each well containing 2 × 10^4 cells. The plates were incubated for 48 h with a doubling dilution series of the test compounds in HMI-9/fetal bovine serum at 37 °C/5% CO2 (23 dilutions starting at 100 µM, except for the pentamidine control (50 µM)), after which resazurin (20 µL of 125 µg mL^−1 resazurin sodium salt solution was added to each well (containing 200 µL of cells and test compound)) was added to each well and the plates incubated for another 24 h. Fluorescence was determined using a FLUOstar Optima (BMG Labtech, Durham, NC) and the results fitted to a sigmoid curve with variable slope using Prism 5.0 or Prism 7.04 (GraphPad, San Diego, CA). […]
Adenosine deaminase susceptibility
in the presence or absence of 2 µM 2’-deoxycoformycin. […]

P2 transporter (TbAT1) [4] = target: T1, P2 transporter (TbAT1); assay: cell-based
Method: Non-specific association of radiolabel with the cell pellet was determined using an identical incubation in the presence of saturating (1 mM) unlabelled adenosine.

Compound: Nc1ncnc2c1ncn2[C@@H]1O[C@H](CO)C[C@H]1O [Compound 3, cordycepin, reference compound]
- AVG of cells/mL ([1]; 2xEC50, 2 h): 122500 cells/mL
- Cells/mL ([1]; 2xEC50, 2 h): 130000 Cells/mL and 115000 Cells/mL
- Counts ([1]; 2xEC50, 2 h): 52 and 46
- AVG of cells/mL ([1]; 2xEC50, 4 h): 122500 cells/mL
- Cells/mL ([1]; 2xEC50, 4 h): 110000 Cells/mL and 135000 Cells/mL
- Counts ([1]; 2xEC50, 4 h): 44 and 54
- AVG of cells/mL ([1]; 2xEC50, 6 h): 161250 cells/mL
- Cells/mL ([1]; 2xEC50, 6 h): 150000 Cells/mL and 172500 Cells/mL
- Counts ([1]; 2xEC50, 6 h): 60 and 69
- AVG of cells/mL ([1]; 2xEC50, 8 h): 187500 cells/mL
- Cells/mL ([1]; 2xEC50, 8 h): 207500 Cells/mL and 167500 Cells/mL
- Counts ([1]; 2xEC50, 8 h): 83 and 67
- AVG of cells/mL ([1]; 2xEC50, 12 h): 195000 cells/mL
- Counts ([1]; 2xEC50, 12 h): 75 and 81
- AVG of cells/mL ([1]; 2xEC50, 24 h): 106250 cells/mL
- Cells/mL ([1]; 2xEC50, 24 h): 82500 Cells/mL and 130000 Cells/mL
- Counts ([1]; 2xEC50, 24 h): 33 and 52
- AVG of cells/mL ([1]; 2xEC50, 36 h): 81250 cells/mL
- Counts ([1]; 2xEC50, 36 h): 29 and 36
- AVG of cells/mL ([1]; 2xEC50, 48 h): 105000 cells/mL
- Cells/mL ([1]; 2xEC50, 48 h): 105000 Cells/mL
- Counts ([1]; 2xEC50, 48 h): 42
- AVG of cells/mL ([1]; 5xEC50, 2 h): 145000 cells/mL
- Cells/mL ([1]; 5xEC50, 2 h): 177500 Cells/mL and 112500 Cells/mL
- Counts ([1]; 5xEC50, 2 h): 71 and 45
- AVG of cells/mL ([1]; 5xEC50, 4 h): 118750 cells/mL
- Cells/mL ([1]; 5xEC50, 4 h): 107500 Cells/mL and 130000 Cells/mL
- Counts ([1]; 5xEC50, 4 h): 43 and 52
- AVG of cells/mL ([1]; 5xEC50, 6 h): 130000 cells/mL
- Cells/mL ([1]; 5xEC50, 6 h): 130000 Cells/mL
- Counts ([1]; 5xEC50, 6 h): 52
- AVG of cells/mL ([1]; 5xEC50, 8 h): 172500 cells/mL
- Cells/mL ([1]; 5xEC50, 8 h): 177500 Cells/mL and 167500 Cells/mL
- Counts ([1]; 5xEC50, 8 h): 71 and 67
- AVG of cells/mL ([1]; 5xEC50, 12 h): 156250 cells/mL
- Counts ([1]; 5xEC50, 12 h): 60 and 65
- AVG of cells/mL ([1]; 5xEC50, 24 h): 33750 cells/mL
- Cells/mL ([1]; 5xEC50, 24 h): 35000 Cells/mL and 32500 Cells/mL
- Counts ([1]; 5xEC50, 24 h): 14 and 13
- AVG of cells/mL ([1]; 5xEC50, 36 h): 31250 cells/mL
- Cells/mL ([1]; 5xEC50, 36 h): 32500 Cells/mL and 30000 Cells/mL
- Counts ([1]; 5xEC50, 36 h): 13 and 12
- AVG of cells/mL ([1]; 5xEC50, 48 h): 15000 cells/mL
- Cells/mL ([1]; 5xEC50, 48 h): 15000 Cells/mL
- Counts ([1]; 5xEC50, 48 h): 6
- Ki (P2 transporter (TbAT1) [2]): 0.18 ± 0.02 µM
- Ki (P1 transporter): 210 ± 48 µM
- EC50 ([3]; absence of deoxycoformycin, read-out: T. b. brucei EC50, -Dcf): 0.44 ± 0.11 µM
- EC50 ([3]; presence of 2 µM deoxycoformycin, read-out: T. b. brucei EC50, +Dcf): 0.0036 ± 0.001 µM
- P2 Ki, fold lower than the Km value for adenosine (P2 transporter (TbAT1) [4]): roughly 3 fold
- energy advantage at P2 versus adenosine (P2 transporter (TbAT1) [4]): roughly 3 kJ mol^−1
- P2 transporter ΔG^0 (P2 transporter (TbAT1) [4]; Gibbs free energy from −RT ln(Ki)): -9.2 kcal/mol
- P2 transporter δ(ΔG^0) (P2 transporter (TbAT1) [4]; in comparison to adenosine): -0.645 kcal/mol
